Measurements reported in US6468989B1, “Gel compositions containing metronidazole” (Dow Pharmaceutical Sciences, priority 2000, dated 2002).
Where two headings read alike, the source gives them in different places.

How the values were obtained:
[1] = Solubility of imidazole compounds in purified water, 4% HPCD and 4% HECD; assay type: physicochemical
Method: Six sample solutions were prepared as described in Example 1 except as follows. Two groups of three sample solutions each were prepared. […] The solubility of each of the samples was determined as shown in Table 5 and was compared to the solubility of the imidazole in purified water without a solubility enhancer.

[2] = Solubilization of metronidazole by HPCD, niacinamide and their combination (visual, 1 week storage); assay type: physicochemical
Method: HPCD and niacinamide solutions were prepared and the concentrations of each to obtain a stable 1% metronidazole solution at 5° C. were determined as 5% and 3%, respectively. Then various combinations of HPCD and niacinamide concentrations in aqueous solution containing 1% metronidazole were prepared as in Example 1.
In the combination solutions, HPCD concentration was in the range of 0% to 5% and the concentration range of niacinamide was 0% to 3%. The solutions were kept at room temperature and 5° C. for a week to assess the maintenance of the dissolved state.
For solubilization effects of HPCD and niacinamide combinations, the concentrations of HPCD and niacinamide were determined in 1% metronidazole solutions, which were clear with no precipitate. Metronidazole solubility was visually determined after a week storage. In order to evaluate the solubilization capacity of the HPCD and niacinamide combinations, the niacinamide concentration required to make 1.5% metronidazole in 5% HPCD solution was determined by keeping the solution at 5° C. for 1 week.

[3] = Solubility of metronidazole in aqueous solutions with different HPCD concentrations, estimated by solution stability; assay type: physicochemical; conditions: 1-day storage at room temperature followed by 1-day storage at 5° C.
Method: Various solutions of hydroxypropyl-beta-cyclodextrin (HPCD) were prepared by combining a quantity of HPCD in water to yield the desired concentration of HPCD between 1% w/w and 15% w/w. To each HPCD solution, an excess amount of metronidazole was added. The solutions were placed in a shaker bath at about 60° C. for about 2 hours or more. After shaking, the samples were permitted to cool to room temperature and were stored at 5° C. […]
In accordance with the invention, stable aqueous metronidazole at the following concentrations may be obtained with the following concentrations of HPCD as shown in Table 1 and FIG. 1.

[4] = cited from earlier work

CCC(C)n1ncn(-c2ccc(N3CCN(c4ccc(OCC5COC(Cn6cncn6)(c6ccc(Cl)cc6Cl)O5)cc4)CC3)cc2)c1=O (stereo not shown) [Itraconazole, itraconazole]
% w/w solubility [1]: less than 0.01 % w/w | Increase in solubility versus purified water [1]: not measurable

CC(=O)N1CCN(c2ccc(OCC3COC(Cn4ccnc4)(c4ccc(Cl)cc4Cl)O3)cc2)CC1 (stereo not shown) [Ketoconazole, ketoconazole]
% w/w solubility [1]: less than 0.01 % w/w | % w/w solubility ([1]; 4% HECD): 0.03-0.05 % w/w | % w/w solubility ([1]; 4% HPCD): 0.01-0.03 % w/w

Cc1ncc([N+](=O)[O-])n1CCO [Metronidazole, 1-(2-hydroxyethyl)-2-methyl-5-nitroimidazole]
Niacinamide concentration that permitted a 1.5% metronidazole solution ([2]; 5% HPCD): 6% | Time the 1.5% metronidazole solution stayed clear with no precipitate ([2]; 5% HPCD and 6% niacinamide, 5° C.): 1 week | Precipitation of 1.5% metronidazole solution ([2]; 5% HPCD, no niacinamide, room temperature): showed a precipitate | HPCD concentration required to make a stable 1% metronidazole aqueous solution ([2]; HPCD alone, 5° C. for 1 week): 5% | Precipitation of aqueous solution containing 1% metronidazole ([2]; HPCD reduced to 4% or less, 5° C. for 1 week): showed a precipitation formation | HPCD concentration giving a stable 1% MTZ solution ([2]; in combination with 0.5% niacinamide): 1.0% | Niacinamide concentration giving a stable 1% MTZ solution ([2]; in combination with 1.0% HPCD): 0.5% | Niacinamide concentration required to make 1% metronidazole aqueous solution ([2]; niacinamide alone, 5° C. for 1 week): 3% | Precipitation of aqueous solution containing 1% metronidazole ([2]; niacinamide reduced to 2% or less, 5° C. for 1 week): showed a precipitation formation | Appearance of solution ([1]; 4% HECD and metronidazole solution): became yellow | Appearance of solution ([1]; 4% HPCD and metronidazole solution): remained clear and colorless | Solubility of MTZ ([3]; 0.0 % w/w HPCD): 0.7 % w/w | Solubility of MTZ ([3]; 2.0 % w/w HPCD): 1.0 % w/w | Solubility of MTZ ([3]; 8.0 % w/w HPCD): 1.5 % w/w | Solubility of MTZ ([3]; 10.0 % w/w HPCD): 2.0 % w/w | Solubility of MTZ ([3]; 15.0 % w/w HPCD): 2.5 % w/w

C[C@H]1O[C@@H](O[C@H]2[C@@H](O)C[C@H](O[C@H]3[C@@H](O)C[C@H](O[C@H]4CC[C@@]5(C)[C@H](CC[C@@H]6[C@@H]5C[C@@H](O)[C@]5(C)[C@@H](C7=CC(=O)OC7)CC[C@]65O)C4)O[C@@H]3C)O[C@@H]2C)C[C@H](O)[C@@H]1O [digoxin]
Water solubility combined with BCD relative to combined with HPCD [4]: five times more water soluble
